Values joined by “and” are separate entries in the source; they are usually repeats but may differ in a detail not shown here. Identical values can stand only once. “Also recorded” adds a separate entry of the source. Like-named read-outs stand apart in the source and are kept apart here.
Experiments:
lemon sharks [1] = assay: Tonic immobility, Syringe Assay; format: in vivo, N. brevirostris
Protocol: (§1) One bioassay used to observe and measure flight response is the tonic immobility test. Tonic immobility is a state of paralysis that typically occurs when a shark is subject to inversion of its body along the longitudinal axis. This state is called “tonic,” and the shark can remain in this state for up to 15 minutes thereby allowing researchers to observe effects of chemical repellents. The “tonic” state of the shark is first established by releasing seawater in proximity to the “tonic” shark with the same delivery instrument and at the same distance as a “test” repellent compound will be released. Some controls are released with a high flow rate (30 mL/sec) in order to establish that sharks are not awakened by a jet of fluid over their noses. Once behavioral controls are established, a compound or composition that may have a repelling effect is delivered to the shark. If the compound or composition engenders a flight response, the shark will awaken from the tonic state and rapidly attempt to flee the delivered repellent. Using this tonic immobility bioassay researches can quantify the strength of a repellent effect.
(§2) A second delivery method called the “Syringe Assay” method delivered a dose of 60 mL or more of a test chemical repellent from at least one foot, and up to as many as five feet, from a shark. The distance of delivery was determined based on the strength of the water current in the direction of the shark. Time from delivery of the test substance until response was observed, measured and recorded. The “Syringe” method allows a researcher to observe how a diffusing and diluting cloud of test chemical repellent affects the shark's behavior when the shark encounters the delivered cloud of test substance. The “Syringe” method requires relatively large doses because of the diffusion of the cloud over time and distance. Time from delivery to response is related to the size of the bolus delivered from the syringe, distance of the shark from the syringe and water current.
(§3) Lemon, nurse, blacktip and tiger sharks were placed in tonic immobility by inverting the shark's body along its longitudinal axis. […] The “tonic” state of each shark was first established by releasing a control of seawater in proximity to the shark with the same delivery instrument and at the same distance as the chemical repellent would later be delivered. In certain controls, sea water was released with a high flow rate (30 mL/sec) in order to establish that the sharks would not be awakened by a jet of fluid over their noses.
(§4) Once behavioral controls were established, the chemical repellent was delivered to the shark using the Hd Syringe Assay method, the Syringe 3/5/10 Assay method, the Bite Assay method or the Micropipette Assay method. […] If tonic immobility was terminated, the positive response was denoted as “Y.” If tonic immobility was not terminated but a behavior change within tonic immobility was noted, such as the opening of the mouth or a cough, the response was denoted as an “R” for reduced response. If no behavior change was observed, the negative response was denoted “N.”
(§5) In the Syringe assay about 60 mL or more of valeraldehyde was delivered from one to as many as five feet from the shark depending on the water current. […] Time from delivery to response was related to the size of the bolus delivered from the syringe, distance of the shark from the syringe and water current.

[2] = test system: sharks (lemon, nurse, blacknose, blacktip pooled); assay: Tonic immobility, Syringe Assay, summary over species; format: in vivo
Protocol: as §1, §2, §5

nurse sharks = assay: Tonic immobility, Syringe Assay; format: in vivo, C. cirratum
lemon sharks [3] = assay: Tonic immobility, Micropipette Assay; format: in vivo, N. brevirostris; conditions: for Comments (behavior observed): lemon / juvenile sharks, micropipette
Protocol: as §1
A fourth method of delivery was called the “Micropipette Assay” method of delivery. In this method, a very small dose (fraction of a mL) of a test substance was delivered directly into a shark's mouth. […] A response, such as a cough or other notable action of the shark, was usually noted when effective gustatory repellents were delivered directly into a shark's mouth while in tonic immobility.
The Micropipette Assay method has not proven to be a particularly effective method of assaying for a flight response in elasmobranchs. The Micropipette Assay method is, nevertheless, an excellent method for specifying that a gustatory response has occurred. It is effective for specifying a gustatory response because the micropipette delivery method allows direct delivery of an entire bolus of test substance into the mouth of the shark being tested.
Using a microliter syringe or microliter pipette, a bolus of test chemical can be directed precisely into one of the shark's nares, or its mouth. […] Olfactory repellents will terminate tonic immobility almost immediately when injected into a nare of the shark.
as §3, §4
Further because the Micropipette assays were often done serially on the same set of sharks, second and third doses of the repellent over time would be expected to evoke less of a reaction. Nevertheless, the small doses delivered to the shark in the Micropipette assay provide important data on whether a compound is a gustatory stimulant because the small dose may be delivered directly into the mouth of the shark. This eliminates any olfactory response that might be acting in concert with a gustatory response to terminate tonic immobility.

[4] = test system: Caribbean reef sharks and blacknose sharks; assay: Cage Assay on free-swimming sharks; format: in vivo, C. perezii, C. acronotus; conditions: for Cage Y (repellent activity), trials of trials: 500 mL delivered at baited cage; for number of strikes at the baited cage / return of sharks / interactions with the baited cage after 10 minutes: 500 mL of 50% w/w in diethylene glycol monoethyl ether
Excerpt: Another bioassay used to observe a flight response in sharks is a free-swimming test using a small metal cage containing bait. This assay is referred to as a “Cage Assay.” The cage with bait is suspended below a float in the water column. A ⅜ inch diptube is secured from the cage to the boat and carried chemical compounds to the proximity of the cage where the test substances were delivered. Sharks are drawn to the vicinity of the boat with chum. Sharks are observed to immediately bump and bite at the cage wherein bait was contained. The number of interactions between the sharks and the cage are recorded over time. Test chemical repelling substance is delivered to the vicinity of the cage through the diptube. The frequency of bumps and strikes by sharks against the cage is then monitored and recorded. If bumps and strikes by sharks cease for a period of time, that time period is also recorded. In the free-swim ring tests disclosed herein using a baited cage, the volume of test chemical repellent delivered into the vicinity of the cage was about 500 mL.
A series of chemical repellent tests on free-swimming Caribbean reef sharks (C. perezii) and blacknose sharks (C. acronotus) was performed in tropical waters. A small metal cage containing bait was suspended below a float in the water column. A ⅜″ ID HDPE diptube was secured from the cage to the boat, so that chemical compounds could be transported to the cage's proximity. Sharks were stimulated using bunker chum in bags.
The number of interactions was recorded using an underwater pole-camera.

sharks (species pooled) = assay: Tonic immobility, total of delivery methods not including Micropipette assays; format: in vivo; conditions: species and delivery methods pooled
Protocol: as §1
Table 1, which summarizes the data in Tables 14 and 15, evidences the gustatory repellent characteristics of methylbutanals. In 35 of 36 assays (combining columns “Y” and “R” under the column labeled “Total (Not including Micropipette Assays)” to arrive at a 97% effectiveness rate), including assays on lemon, nurse, tiger and blacktip sharks, the gustatory repellent activity of 3-methylbutanal was established. In 81% of assays, tonic immobility was fully terminated. […] In only a single assay did a shark not respond to treatment with 3-methylbutanal.

juvenile sharks = assay: Initial tonic immobility assays, mouth delivery by micropipette or syringe; format: in vivo; conditions: introduced to the mouth using a micropipette or syringe
[5] = test system: sharks (lemon, nurse, tiger pooled); assay: Tonic immobility, Hd Syringe Assay, summary over species; format: in vivo; conditions: species pooled
Protocol: as §1
In Hd-Syringe Assays, the 3-methylbutanal was delivered to the shark's mouth and nares using a 3 mL hypodermic syringe fitted with a 22 gauge needle. The needle was held within 3 inches of the shark's mouth and the test repellent was slowly released from the syringe with a very fine plume in the water column. Any response was denoted. If a response occurred during a measurable time after delivery of the test chemical, the time between delivery and response was noted. If a response occurred immediately or the response occurred before a measurable time could be established, no time to response was noted.

## CCCCCCCCC=O [nonanal]
Lemon sharks [1]
  Syringe assays terminating tonic immobility (text): terminated
[2]
  Syringe Y (termination of tonic immobility), trials of trials: 1/1

## COc1ccc(C=O)cc1OC [veratraldehyde]
Nurse sharks
  Syringe assays with no response: no response
Lemon sharks [3]; lemon sharks
  Micropipette assays with a response: eight of twelve
  Micropipette assays with no response: four
[2]
  Syringe N (no response), trials of trials: one of seven and 1/7
  Syringe Y (termination of tonic immobility), trials of trials: six of seven and six of six and 6/7

## CCCCCCC=O [heptanal]
Lemon sharks [1]
  Syringe assays with no response: no response
[2]
  Syringe N (no response), trials of trials: no response and 1/1

## CC(=O)C=C(C)C [mesityl oxide]
Lemon sharks [1]
  Syringe assays terminating tonic immobility (text): terminated
[2]
  Syringe Y (termination of tonic immobility), trials of trials: 1/1

## Cc1ccc(C=O)cc1 [Tolualdehyde, p-tolualdehyde]
Lemon sharks [1]; listed as p-tolualdehyde
  Syringe assays terminating tonic immobility (text): termination of tonic immobility
Lemon sharks [1]; listed as tolualdehyde
  Syringe assays terminating tonic immobility (text): terminated
[2]
  Syringe Y (termination of tonic immobility), trials of trials: 1/1

## CCCCCCCC=O [octanal]
Lemon sharks [1]
  Syringe assays terminating tonic immobility (text): terminated
[2]
  Syringe Y (termination of tonic immobility), trials of trials: 1/1

## Cc1cc(=O)n(-c2ccccc2)n1C [antipyrine solution, antipyrine]
Lemon sharks [3]; lemon sharks
  Micropipette assays with a response: a response was observed; also recorded: evoked a response in one assay
  Micropipette assays with no response: no response; also recorded: did not evoke a response in another

## COc1cc(CCC(C)=O)ccc1O [Zingerone, zingerone]
[4]
  Cage Y (repellent activity), trials of trials: 1/1
  number of strikes at the baited cage: decrease in the number of strikes; also recorded: reduced
  return of sharks / interactions with the baited cage after 10 minutes: lull in feeding for 10 minutes; also recorded: interactions continued after a 10 minute period

## CC(C)c1ccc(C=O)cc1 [Cuminaldehyde, cuminaldehyde]
Lemon sharks [1]
  Syringe assays terminating tonic immobility (text): resulted in termination of tonic immobility
[2]
  Syringe Y (termination of tonic immobility), trials of trials: 1/1
[2]; listed as cuminaldehyde
  Syringe Y (termination of tonic immobility), trials of trials: terminated
Sharks (species pooled)
  Total (Not including Micropipette assays / Effective Delivery Methods) Y, trials of trials: 1/1

## CCCC=O [Butyraldehyde, butyraldehyde]
Lemon sharks [1]
  Syringe assays terminating tonic immobility (text): resulting in termination of tonic immobility
Nurse sharks
  Syringe assays terminating tonic immobility (text): two
  Syringe assays with no response: one
[2]
  Syringe Y (termination of tonic immobility), trials of trials: 4/4
[2]; listed as butyraldehyde
  Syringe Y (termination of tonic immobility), trials of trials: 4 of 5
Sharks (species pooled)
  Total (Not including Micropipette assays / Effective Delivery Methods) Y, trials of trials: 4/4
  Total Y, percent of trials: 100%

## O=Cc1ccc2c(c1)OCO2 [Piperonal, piperonal]
[4]
  Cage Y (repellent activity), trials of trials: 1/1
  number of strikes at the baited cage: decrease in the number of strikes; also recorded: dramatically reduced
  return of sharks / interactions with the baited cage after 10 minutes: did not return; also recorded: interactions ceased
Sharks (species pooled)
  Total (Not including Micropipette assays / Effective Delivery Methods) Y, trials of trials: 1/1

## Cc1ncccc1N [3-amino-2-picoline]
Juvenile sharks
  result of initial tonic immobility assays: terminated tonic immobility

## CC(=O)/C=C/C1C(C)=CCCC1(C)C (stereo not drawn) [Ionone, alpha-ionone]
[4]
  Cage Y (repellent activity), trials of trials: 1/1
[4]; listed as alpha-ionone
  number of strikes at the baited cage: reduced
  return of sharks / interactions with the baited cage after 10 minutes: interactions continued after a 10 minute period
[4]; listed as ionone
  number of strikes at the baited cage: decrease in the number of strikes
  return of sharks / interactions with the baited cage after 10 minutes: lull in feeding for 10 minutes

## Cc1ccccn1 [alpha-picoline, 2-methylpyridine]
Juvenile sharks
  result of initial tonic immobility assays: terminated tonic immobility

## Cc1cccnc1 [3-methylpyridine]
[5]
  Hd-Syringe Y (termination of tonic immobility), trials of trials: three of three and 3/3
Juvenile sharks
  result of initial tonic immobility assays: terminated tonic immobility

## Cc1cccc(C)n1 [lutidine]
Juvenile sharks
  result of initial tonic immobility assays: terminated tonic immobility

## CCCCCCCCCC=O [decanal]
Lemon sharks [1]
  Syringe assays terminating tonic immobility (text): terminated
Nurse sharks
  Syringe assays terminating tonic immobility (text): terminated
[2]
  Syringe Y (termination of tonic immobility), trials of trials: 1/1

## Cc1cccnc1N [2-amino-3-picoline 95%, 2-amino-3-picoline]
Lemon sharks [3]
  Comments (behavior observed): violent seizure; also recorded: VIOLENT/SEIZURE
Lemon sharks [3]; listed as aminopicoline
  Comments (behavior observed): violent responses
Lemon sharks [3]; lemon sharks
  Micropipette assays terminating tonic immobility: one
  Micropipette assays with a response: two of two

## Cc1ccncc1 [gamma-picoline, 4-methylpyridine]
Juvenile sharks
  result of initial tonic immobility assays: terminated tonic immobility

## Cc1cc(C)nc(C)c1 [collidine]
Juvenile sharks
  result of initial tonic immobility assays: terminated tonic immobility
